Patent US20220033364A1, “INSECTICIDAL COMPOUNDS” (SYNGENTA CROP PROTECTION AG, priority 2018, published 2022)

Assays:
Format in all cases: in vivo
Tetranychus urticae = Tetranychus urticae (two-spotted spider mite) feeding/contact activity; conditions: foliar, 192 h, spray on bean leaf discs, mixed population (mobile stages), 8 days after infestation
Procedure: Bean leaf discs on agar in 24-well microtiter plates were sprayed with aqueous test solutions prepared from 10′000 ppm DMSO stock solutions. After drying the leaf discs were infested with a mite population of mixed ages. The samples were assessed for mortality on mixed population (mobile stages) 8 days after infestation.

Myzus persicae = Myzus persicae (green peach aphid) feeding/contact activity; conditions: foliar, 144 h, spray on sunflower leaf discs, mixed ages, 6 days after infestation
Procedure: (§1) Sunflower leaf discs were placed onto agar in a 24-well microtiter plate and sprayed with aqueous test solutions prepared from 10′000 ppm DMSO stock solutions. After drying, the leaf discs were infested with an aphid population of mixed ages. The samples were assessed for mortality 6 days after infestation.

Euschistus heros = Euschistus heros (neotropical brown stink bug) soybean leaf spray test; conditions: 120 h, spray on soybean leaves, N2 nymphs, 5 days after infestation, read-out: effect in at least one of the two categories (mortality or growth inhibition)
Procedure: Soybean leaves on agar in 24-well microtiter plates were sprayed with aqueous test solutions prepared from 10′000 ppm DMSO stock solutions. After drying the leaves were infested with N2 nymphs. The samples were assessed for mortality and growth inhibition in comparison to untreated samples 5 days after infestation.

Plutella xylostella [1] = experiment: Plutella xylostella (diamond back moth) artificial diet test, L2 larvae; conditions: 120 h, 5 days after infestation, read-out: effect in at least one of the two categories (mortality or growth inhibition)
Procedure: (§2) 24-well microtiter plates with artificial diet were treated with aqueous test solutions prepared from 10′000 ppm DMSO stock solutions by pipetting. After drying, the plates were infested with L2 larvae (10 to 15 per well). The samples were assessed for mortality and growth inhibition in comparison to untreated samples 5 days after infestation.

Spodoptera littoralis = Spodoptera littoralis (Egyptian cotton leaf worm) cotton leaf disc test; conditions: foliar, 72 h, spray on cotton leaf discs, L1 larvae, 3 days after infestation, read-out: control (mortality, anti-feeding effect or growth inhibition)
Procedure: Cotton leaf discs were placed onto agar in 24-well microtiter plates and sprayed with aqueous test solutions prepared from 10′000 ppm DMSO stock solutions. After drying the leaf discs were infested with five L1 larvae. The samples were assessed for mortality, anti-feeding effect, and growth inhibition in comparison to untreated samples 3 days after infestation. Control of Spodoptera littoralis by a test sample is given when at least one of the categories mortality, anti-feedant effect, and growth inhibition is higher than the untreated sample.

Diabrotica balteata = Diabrotica balteata (corn root worm) maize sprout spray test; conditions: 96 h, spray on maize sprouts, L2 larvae, 4 days after infestation, read-out: effect in at least one of the two categories (mortality or growth inhibition)
Procedure: as §2, with “Maize sprouts placed onto an agar layer in 24-well” for “24-well”, “plates” for “plates with artificial diet”, “spraying.” for “pipetting.”, “(6” for “(10”, “10” for “15”, “4” for “5”

Thrips tabaci = Thrips tabaci (onion thrips) feeding/contact activity; conditions: foliar, 144 h, spray on sunflower leaf discs, mixed ages, 6 days after infestation
Procedure: as §1, with “on” for “onto”, “in” for “in a”, “plates” for “plate”, “drying” for “drying,”, “a thrips” for “an aphid”

Plutella xylostella [2] = experiment: Plutella xylostella (diamond back moth) artificial diet test, eggs; conditions: 192 h, 8 days after infestation, read-out: effect in at least one of the two categories (mortality or growth inhibition)
Procedure: as §2, with “drying, Plutella eggs were pipetted through a plastic stencil onto a gel blotting paper and” for “drying,”, “plate was closed” for “plates were infested”, “it.” for “L2 larvae (10 to 15 per well).”, “8” for “5”

Cc1cc(C2=NO[C@@](c3cc(Cl)c(F)c(Cl)c3)(C(F)(F)F)C2)ccc1C(=O)N(C(=O)C1CC1)[C@H]1CON(S(=O)(=O)C(F)F)C1 [Compound A1, N-(cyclopropanecarbonyl)-4-[(5S)-5-(3,5-dichloro-4-fluoro-phenyl)-5-(trifluoromethyl)-4H-isoxazol-3-yl]-N-[(4R)-2-(difluoromethylsulfonyl)isoxazolidin-4-yl]-2-methyl-benzamide]
≥ 80%: mortality at 200 ppm (Tetranychus urticae) | mortality at 200 ppm (Myzus persicae) | percent effect (mortality or growth inhibition) at 200 ppm (Euschistus heros) | percent effect (mortality or growth inhibition) at 200 ppm (Plutella xylostella [1]) | percent control (mortality, anti-feedant effect or growth inhibition) at 200 ppm (Spodoptera littoralis) | percent effect (mortality or growth inhibition) at 200 ppm (Diabrotica balteata) | mortality at 200 ppm (Thrips tabaci)

Cc1cc(C2=NO[C@@](c3cc(Cl)c(F)c(Cl)c3)(C(F)(F)F)C2)ccc1C(=O)N(COC1CC1)[C@H]1CON(S(=O)(=O)C(F)F)C1 [Compound A2, N-(cyclopropoxymethyl)-4-[(5S)-5-(3,5-dichloro-4-fluoro-phenyl)-5-(trifluoromethyl)-4H-isoxazol-3-yl]-N-[(4R)-2-(difluoromethylsulfonyl)isoxazolidin-4-yl]-2-methyl-benzamide]
≥ 80%: percent effect (mortality or growth inhibition) at 200 ppm (Euschistus heros) | percent control (mortality, anti-feedant effect or growth inhibition) at 200 ppm (Spodoptera littoralis) | percent effect (mortality or growth inhibition) at 200 ppm (Plutella xylostella [2])
